Test [1] deals with JAK1 (recombinant purified GST-tagged catalytic domain) (Homo sapiens (Human), UniProt P23458). Put plainly: Jak Biochemical HTRF Assay (JAK1). To be noted: [ATP] 31.8 μM. The essentials:
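HTRF format, biotinylated peptide substrate; ATP-initiated reaction 120 min RT; EDTA quench + streptavidin-Dylight 650/Eu-anti-pY20 detection, 60 min RT; signal = 665/615 ratio ×10,000; normalized % inhibition, 4-parameter fit → IC50.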

Test [2] has as its target JAK2 (recombinant purified GST-tagged catalytic domain) (Homo sapiens (Human), UniProt O60674). Description: Jak Biochemical HTRF Assay (JAK2). As to conditions: [ATP] 8.5 μM. (Time-resolved FRET reads energy transfer from a long-lived donor to a nearby acceptor.)

From US9957264B2 (Merck Sharp & Dohme Corp., priority 2013, dated 2018) come the findings set out here.

The IC50 is the concentration that gives 50% inhibition.

JAK1 (recombinant purified GST-tagged catalytic domain), sequence (P23458 875-1153): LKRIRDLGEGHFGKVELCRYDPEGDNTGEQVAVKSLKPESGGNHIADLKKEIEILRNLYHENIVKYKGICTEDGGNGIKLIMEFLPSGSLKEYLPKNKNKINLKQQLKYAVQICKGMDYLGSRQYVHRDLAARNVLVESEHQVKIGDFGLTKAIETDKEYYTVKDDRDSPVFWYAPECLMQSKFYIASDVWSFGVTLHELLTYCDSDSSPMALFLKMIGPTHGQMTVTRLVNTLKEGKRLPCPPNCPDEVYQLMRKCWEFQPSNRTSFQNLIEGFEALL
JAK2 (recombinant purified GST-tagged catalytic domain), sequence (O60674 849-1124): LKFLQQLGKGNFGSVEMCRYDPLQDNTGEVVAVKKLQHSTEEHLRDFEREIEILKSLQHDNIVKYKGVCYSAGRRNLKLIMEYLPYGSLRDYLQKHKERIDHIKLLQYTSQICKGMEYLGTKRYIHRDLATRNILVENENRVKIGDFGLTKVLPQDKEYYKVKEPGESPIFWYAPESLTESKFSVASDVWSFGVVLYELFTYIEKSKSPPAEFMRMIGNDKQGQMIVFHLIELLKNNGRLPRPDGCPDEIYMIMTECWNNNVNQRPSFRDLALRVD

On to `CC(C)(C)OC(=O)N1CC[C@](CC#N)(n2nc(Nc3ccc(S(C)(=O)=O)cc3)c3c(=O)[nH]ccc32)[C@@H](F)C1` (single isomer, unassigned) [Example 5-14, tert-butyl (3S,4R or 3R,4S)-4-(cyanomethyl)-3-fluoro-4-(3-{[4-(methylsulfonyl)phenyl]amino}-4-oxo-4,5-dihydro-1H-pyrazolo[4,3-c]pyridin-1-yl)piperidine-1-carboxylate], for which the values for the IC50 in test [1] and in test [2] were 1.07 nM and 17.7 nM, respectively.
In the case of `Cc1cc(Nc2nn([C@]3(CC#N)CC[C@@H](C(=O)OC(C)(C)C)OC3)c3cc[nH]c(=O)c23)ccc1C(=O)N1CCOC(C)C1` (single isomer, unassigned) [Example 20-10, (2S,5S)-tert-butyl 5-(cyanomethyl)-5-(3-((3-methyl-4-((S or R)-2-methylmorpholine-4-carbonyl)phenyl)amino)-4-oxo-4,5-dihydro-1H-pyrazolo[4,3-c]pyridin-1-yl)tetrahydro-2H-pyran-2-carboxylate], the IC50 stood at 0.21 nM in test [1] and 0.31 nM in test [2].
For `CC(C)(C)OC(=O)N1CC[C@@](CC#N)(n2nc(Nc3ccc(S(C)(=O)=O)cc3)c3c(=O)[nH]ccc32)[C@@H](F)C1` [Example 5-16, tert-butyl (3S,4S)-4-(cyanomethyl)-3-fluoro-4-(3-{[4-(methyl-sulfonyl)phenyl]amino}-4-oxo-4,5-dihydro-1H-pyrazolo[4,3-c]pyridin-1-yl)piperidine-1-carboxylate] the same measures were 0.12 nM and 0.35 nM.
For `CC(C)(C)OC(=O)[C@@H]1CC[C@@](CC#N)(n2nc(Nc3ccccc3)c3c(=O)[nH]ccc32)CO1` [Example 5-54, (2S,5S)-tert-butyl 5-(cyanomethyl)-5-(4-oxo-3-(phenylamino)-4,5-dihydro-1H-pyrazolo[4,3-c]pyridin-1-yl)tetrahydro-2H-pyran-2-carboxylate] the same measures were 0.12 nM and 1.62 nM.
As to `C[C@@H]1CCCC1OC(=O)N1CCC(CC#N)(n2nc(Nc3ccc(S(=O)(=O)N(C)C)cc3)c3c(=O)[nH]ccc32)CC1` (mixture of isomers) [Example 11-2, (trans racemic)-2-methylcyclopentyl 4-(cyanomethyl)-4-(3-((4-(N,N-dimethylsulfamoyl)phenyl)amino)-4-oxo-4,5-dihydro-1H-pyrazolo[4,3-c]pyridin-1-yl)piperidine-1-carboxylate], the IC50 in test [1] was determined as 0.38 nM; in test [2] it was 1.69 nM.
In the case of `CN(C)S(=O)(=O)c1ccc(Nc2nn(C3(CC#N)CCN(Cc4ccc(F)cc4)CC3)c3cc[nH]c(=O)c23)cc1` [Example 8-7, 4-({1-[4-(cyanomethyl)-1-(4-fluorobenzyl)piperidin-4-yl]-4-oxo-4,5-dihydro-1H-pyrazolo[4,3-c]pyridin-3-yl}amino)-N,N-dimethylbenzenesulfonamide], the half-maximal inhibitory concentration (IC50) in test [1] was found to be 0.21 nM; in test [2], 0.63 nM.
For `CN(C)S(=O)(=O)c1ccc(Nc2nn(C3(CC#N)CCC(=O)CC3)c3cc[nH]c(=O)c23)cc1` [Example 18-39, 4-((1-(1-(cyanomethyl)-4-oxocyclohexyl)-4-oxo-4,5-dihydro-1H-pyrazolo[4,3-c]pyridin-3-yl)amino)-N,N-dimethylbenzenesulfonamide] the same measures were 1.37 nM and 1.78 nM.
For `CCNC(c1ccc(Nc2nn([C@@]3(CC#N)CCCC[C@H]3F)c3cc[nH]c(=O)c23)cc1)C(F)(F)F` (single isomer, unassigned) [Example 5-173, {(1R,2R)-1-[3-({4-[(1R or 1S)-1-(ethylamino)-2,2,2-trifluoroethyl]phenyl}amino)-4-oxo-4,5-dihydro-1H-pyrazolo [4,3-c]pyridin-1-yl]-2-fluorocyclohexyl} acetonitrile] the same measures were 0.07 nM and 0.07 nM.
Consider `CCN(CC(F)(F)F)C(=O)c1ccc(Nc2nn([C@]3(CC#N)CC[C@@H](C(=O)OC(C)(C)C)OC3)c3cc[nH]c(=O)c23)cc1C` [Example 20-14, (2S,5S)-tert-butyl 5-(cyanomethyl)-5-(3-((4-(ethyl(2,2,2-trifluoroethyl)carbamoyl)-3-methylphenyl)amino)-4-oxo-4,5-dihydro-1H-pyrazolo[4,3-c]pyridin-1-yl)tetrahydro-2H-pyran-2-carboxylate], for which the IC50 was determined as 0.28 nM in test [1] and 0.51 nM in test [2].
For `CC(C)(C)OC(=O)[C@@H]1CC[C@@](CC#N)(n2nc(Nc3ccc(C(N)C(F)(F)F)cc3)c3c(=O)[nH]ccc32)CO1` (stereo partly drawn) [Example 5-103, (2S,5S)-tert-butyl 5-(3-((4-(1-amino-2,2,2-trifluoroethyl)phenyl)amino)-4-oxo-4,5-dihydro-1H-pyrazolo[4,3-c]pyridin-1-yl)-5-(cyanomethyl)tetrahydro-2H-pyran-2-carboxylate] the same measures were 0.07 nM and 0.23 nM.
With `COC1CN([C@H]2CC[C@@](CC#N)(n3nc(Nc4ccc(Cl)cc4)c4c(=O)[nH]ccc43)CC2)C1` [Example 18-9, Cis 2-(1-(3-((4-chlorophenyl)amino)-4-oxo-4,5-dihydro-1H-pyrazolo[4,3-c]pyridin-1-yl)-4-(3-methoxyazetidin-1-yl)cyclohexyl)acetonitrile], the IC50 was 1.14 nM in test [1] and 102 nM in test [2].
`CC(C)(C)OC(=O)N1CCC(CC#N)(n2nc(Nc3ccnc(F)c3)c3c(=O)[nH]ccc32)CC1` [Example 5-78, tert-butyl 4-(cyanomethyl)-4-{3-[(2-fluoropyridin-4-yl)amino]-4-oxo-4,5-dihydro-1H-pyrazolo[4,3-c]pyridin-1-yl}piperidine-1-carboxylate]: the IC50 in test [1] was 0.18 nM; in test [2] it was 2.12 nM.
In the case of `CC(C)(C)OC(=O)N1CCC(CC#N)(n2nc(Nc3cc(Cn4nccn4)cc(Cn4nccn4)c3)c3c(=O)[nH]ccc32)CC1` [Example 5-63, tert-butyl 4-(3-(3,5-bis((2H-1,2,3-triazol-2-yl)methyl)phenylamino)-4-oxo-4,5-dihydropyrazolo[4,3-c]pyridin-1-yl)-4-(cyanomethyl)piperidine-1-carboxylate], the half-inhibitory concentration (IC50) in test [1] was 2.1 nM; in test [2], 0.7 nM.
As to `CC(C)(C)OC(=O)C(C)(C)N1Cc2cc(Nc3nn(C4(CC#N)CCCC4)c4cc[nH]c(=O)c34)ccc2C1=O` [Example 5-140, tert-butyl 2-(5-((1-(1-(cyanomethyl)cyclopentyl)-4-oxo-4,5-dihydro-1H-pyrazolo[4,3-c]pyridin-3-yl)amino)-1-oxoisoindolin-2-yl)-2-methylpropanoate], the half-inhibitory concentration (IC50) was determined as 0.32 nM in test [1] and 0.74 nM in test [2].
For `CCS(=O)(=O)c1ccc(Nc2nn(C3(CC#N)CCCC3)c3cc[nH]c(=O)c23)cc1` [Example 5-133, 2-(1-(3-((4-(ethylsulfonyl)phenyl)amino)-4-oxo-4,5-dihydro-1H-pyrazolo[4,3-c]pyridin-1-yl)cyclopentyl) acetonitrile] the same measures were 0.44 nM and 1.38 nM.
For `CC(C#N)OC(=O)N1CCC(CC#N)(n2nc(Nc3ccc(S(=O)(=O)N(C)C)cc3)c3c(=O)[nH]ccc32)CC1` (stereo not drawn) [Example 11-10, 1-cyanoethyl 4-(cyanomethyl)-4-(3-((4-(N,N-dimethylsulfamoyl)phenyl)amino)-4-oxo-4,5-dihydro-1H-pyrazolo[4,3-c]pyridin-1-yl)piperidine-1-carboxylate] the same measures were 0.06 nM and 0.1 nM.
For `CC(C)(C)OC(=O)N1CC[C@](CC#N)(n2nc(Nc3ccc4c(c3)CN(C(C)(C)C)S4(=O)=O)c3c(=O)[nH]ccc32)[C@H](F)C1` [Example 5-22, tert-butyl (3R,4R)-4-{3-[(2-tert-butyl-1,1-dioxido-2,3-dihydro-1,2-benzisothiazol-5-yl)amino]-4-oxo-4,5-dihydro-1H-pyrazolo [4,3-c]pyridin-1-yl}-4-(cyanomethyl)-3-fluoropiperidine-1-carboxylate] the same measures were 0.15 nM and 0.19 nM.
Consider `N#CC[C@]1(n2nc(Nc3cc(F)c4nccc(Cl)c4c3)c3c(=O)[nH]ccc32)CCOC1` (single isomer, unassigned) [Example 5-244, [(3S or 3R)-3-{3-[(4-chloro-8-fluoroquinolin-6-yl)amino]-4-oxo-4,5-dihydro-1H-pyrazolo[4,3-c]pyridin-1-yl}tetrahydrofuran-3-yl]acetonitrile], for which the IC50 in test [1] was 23 nM; in test [2], 348 nM.
For `CSC(C)C(=O)N1CCC(CC#N)(n2nc(Nc3ccc(S(=O)(=O)N(C)C)cc3)c3c(=O)[nH]ccc32)CC1` (stereo not drawn) [Example 9-24, 4-((1-(4-(cyanomethyl)-1-(2-(methylthio)propanoyl)piperidin-4-yl)-4-oxo-4,5-dihydro-1H-pyrazolo[4,3-c]pyridin-3-yl)amino)-N,N-dimethylbenzenesulfonamide] the same measures were 0.14 nM and 0.36 nM.
Consider `COC(=O)N1CCC(CC#N)(n2nc(Nc3ccnc(F)c3)c3c(=O)[nH]ccc32)CC1` [Example 13-2, methyl 4-(cyanomethyl)-4-(3-(2-fluoropyridin-4-ylamino)-4-oxo-4,5-dihydropyrazolo[4,3-c]pyridin-1-yl)piperidine-1-carboxylate], for which the figures for the IC50 in test [1] and in test [2] were 0.64 nM and 5.54 nM, respectively.
For `CN(C)S(=O)(=O)c1ccc(Nc2nn(C3(CC#N)CCN(C(=O)Oc4ccccc4)CC3)c3cc[nH]c(=O)c23)cc1` [Example 10-2, phenyl 4-(cyanomethyl)-4-(3-((4-(N,N-dimethylsulfamoyl)phenyl)amino)-4-oxo-4,5-dihydro-1H-pyrazolo[4,3-c]pyridin-1-yl)piperidine-1-carboxylate] the same measures were 0.19 nM and 0.86 nM.
